The target in one series is T1, human PPARα (Homo sapiens, UniProt Q07869).
T1 construct: The Gal4-hPPAR LBD constructs were obtained from GlaxoSmithKline; host or cells: HEK293
T1 sequence (Q07869 239-466 limits assumed): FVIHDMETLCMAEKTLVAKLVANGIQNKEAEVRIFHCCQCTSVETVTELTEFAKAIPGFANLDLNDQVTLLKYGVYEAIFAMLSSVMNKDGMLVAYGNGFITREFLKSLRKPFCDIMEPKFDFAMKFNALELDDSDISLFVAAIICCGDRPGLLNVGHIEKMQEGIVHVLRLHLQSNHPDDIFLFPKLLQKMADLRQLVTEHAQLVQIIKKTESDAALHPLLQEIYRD
Kind of series: Gal4-dependent MH100-Luc reporter, human PPARα. It is filed as cell-based. Here is the method: The pGEX-DRIP205 (527˜970) was obtained from the Sloan-Kettering Cancer Center. The Gal4-hPPAR LBD constructs were obtained from GlaxoSmithKline, Research Triangle Park, NC. The IL8-Luciferase reporter was obtained from Celgene, San Diego, Calif. The plasmids mPPARα, mPPARγ1, mPPARδ , and hRXRα were in the pCMX vector (Umesono et al., Cell 65:1255-1266, 1991).
For PPARγ activation assay, HEK293 cells were plated in 12-well cell culture plates and maintained in Dulbecco's modified Eagle's medium (DMEM) supplemented with 10% fetal bovine serum (FBS) at 37° C. under 5% CO2. […] The average normalized luciferase activity was determined via triplicate experiments. […]
To further confirm activation of PPARγ by AJA, and also to determine PPARγ species specificity, the ability of AJA to activate the chimeric Gal4-DBD/PPAR fusion proteins on a Gal4-dependent MH100-Luc reporter was assessed (FIG. 4A). The PPARs were expressed as Gal4 DBD fusion proteins, which bind to the UAS promoter containing 4 copies of a synthetic Gal4 binding site upstream of the minimal thymidine kinase (TK) promoter. […] Transfected cells were treated with increasing concentrations of AJA from 10-60 μM and the luciferase activities were determined in triplicate experiments. […]

The conditions of series [1]: cited from earlier work.
The test system of series [2] is PPARγ2 and aP2 gene expression in 3T3 L1 cells. Description: RT-PCR of adipocyte-specific genes. It is filed as cell-based. As to conditions: versus vehicle control. Here is the method: The adipocyte differentiation assay was performed as described by Mukherjee et. al. (Mol Endocrinol 14: 1425-33, 2000). The 3T3 L1 cells (American Type Culture Collection) were cultured in DMEM media supplemented with 10% calf serum. Two days after reaching confluence, cells were treated with AJA, GW347845, or vehicle (0.1% DMSO) in the presence of 10 μg/ml insulin every other day. After 10 days of treatment with AJA or 7 days with GW347845 at confluence, cells were fixed and stained with Oil Red O (Sigma). For RT-PCR, total cellular RNAs were isolated by TRIzol (Gibco). Reverse transcriptase polymerase chain reaction (RT-PCR) was performed using the superscript first-strand synthesis kit (Invitrogen). After first-strand cDNA was synthesized by use of oligo (dT), cDNA was amplified by PCR. The forward primers and reverse primers used in the amplifications were 5′-GCTGTTATGGGTGAAACTCTGGGAG-3′(SEQ ID NO: 1), and 5′-CTTCATGAGGCCTGTTGTAGAGC-3′ (SEQ ID NO:2), for PPARγ2, 5′-GAGCAAATGGAGTTCCCAGATG-3′ (SEQ ID NO: 3), and 5′-GCAAACAATGGGAATAGTTCACAGTAG-3′ (SEQ ID NO: 4), for aP2, and 5′-GACCACAGTCCATGCCATCAC-3′(SEQ ID NO: 5), and 5′-CATACCAGGAAATGAGCTGAC-3′ (SEQ ID NO: 6), for GAPDH. PCR amplifications were performed in 50 μL volume with Taq DNA polymerase for 30 cycles.
To confirm that AJA and GW347845 induce 3T3 L1 cell differentiation into adipocytes, the expression levels of the adipocyte-specific genes PPARγ2 and aP2 were measured by RT-PCR. Total RNA was isolated after AJA or GW347845 treatment, and compared with vehicle control. Reverse transcription was conducted and the relative amounts of PPARγ2 and aP2 transcripts were measured by PCR reactions using primer sets specific to each gene. PCR products were analyzed on 1% agarose gel and stained with Ethidium Bromide. […] As a control for the induction specificity and the PCR amplification reaction, the expression levels of GADPH were measured in all samples, and found not affected by any treatment.

The source of these data is US20040186166A1, “Cannabinoid analogs as peroxisome proliferator activated nuclear receptor gamma activators” (priority 2002, published 2004).

As for `CCCCCCC(C)(C)c1cc(O)c2c(c1)OC(C)(C)[C@@H]1CC=C(C(=O)O)C[C@@H]21` [AJA, dimethylheptyl-THC-11-oic acid], the “activation of human PPARα” value at human PPARα is reported as “did not activate”. For the same molecule, in series [1] (in vivo), the drug dependence entry was “did not exhibit drug dependence” and the mutagenesis entry is recorded as “did not exhibit drug dependence or cause mutagenesis”. Further, in series [1] (therapeutically relevant doses), the ulcerogenicity entry was “totally non-ulcerogenic”. In series [2], the PPARγ2 gene expression result is “enhanced PPARγ2 and aP2 gene expression significantly”; the aP2 gene expression result was “enhanced PPARγ2 and aP2 gene expression significantly”.
